Consider 7 compounds from patent publication US10487064B1, “Crystalline forms of selective S1P1 receptor modulator and preparation method thereof” (Crystal Pharmatech Co., Ltd., priority 2015, dated 2019).

A short description of data set [1]: Solubility assessment: saturated solutions in FaSSIF, FeSSIF, SGF and water, concentration by HPLC. The format is physicochemical. The conditions noted are these: for solubility compared with Form C in prior art: general statement. The method, then:
Saturated solution of Form 2 and Form A, Form C disclosed in CN102177144B were prepared in FaSSIF (Fasted state simulated intestinal fluids, pH=6.5), FeSSIF (Fed state simulated intestinal fluids, pH=5.0), SGF (Simulated gastric fluids, pH=1.8), and water. Concentrations in the saturation solutions were measured after 1 hour and 24 hours by HPLC.
Form 3 and Form A, Form C were prepared into saturated solution in FaSSIF (Fasted state simulated intestinal fluids, pH=6.5), FeSSIF (Fed state simulated intestinal fluids, pH=5.0) and water. Concentrations in the saturation solutions were measured after 1 hour and 24 hours by HPLC.

The conditions of data set [2]: cited from earlier work.
Data set [3] is described as follows: Stability assessment of crystalline forms on storage (XRPD before and after). The format is physicochemical. The conditions noted are these: for stability compared with Form C in prior art: general statement; for Solid Form after storage / Crystalline form after storing: XRPD; for physical stability (overall conclusion): storage conditions of the stability assessment. On the procedure:
20 mg of sample of Form 2 was stored under 25° C./60% RH, 40° C./75% RH for 6 months, and 80° C. for 3 months. […] 20 mg of sample of Form 3 was stored under 25° C./60% RH and 40° C./75% RH for 6 months.

For data set [4] the following is noted: treatment of moderate-to-severe chronic plaque psoriasis; cited from earlier work.

In brackets after ≈: the same amount, converted by molar mass. Entries after “also recorded” stand apart in the source; their conditions may differ.

As to `CCC/N=C1\S/C(=C\c2ccc(OC[C@H](O)CO)c(Cl)c2)C(=O)N1c1ccccc1C` [Form A, Ponesimod, reference compound], the Solubility (usually how much of the substance goes into solution per volume) in data set [1] (FaSSIF pH=6.5, 1 h) turned out to be 7 µg/mL (≈ 15.2 µM); in data set [1] (FaSSIF pH=6.5, 24 h), 4 µg/mL (≈ 8.68 µM); in data set [1] (FeSSIF pH=5.0, 1 h) it was 141 µg/mL (≈ 306 µM); in data set [1] (FeSSIF pH=5.0, 24 h), 163 µg/mL (≈ 354 µM); in data set [1] (SGF pH=1.8, 1 h), 34 µg/mL (≈ 73.8 µM); in data set [1] (SGF pH=1.8, 24 h) it was 45 µg/mL (≈ 97.6 µM). Moreover, the thermodynamic stability entry in data set [2] (compared with Form C) is recorded as “inferior to Form C”.
Consider `CCC/N=C1\S/C(=C\c2ccc(OC[C@H](O)CO)c(Cl)c2)C(=O)N1c1ccccc1C` [Form III, Ponesimod], for which the form transformation entry in data set [2] (at room temperature) was “will transform to Form II at room temperature”.
For `CCC/N=C1\S/C(=C\c2ccc(OC[C@H](O)CO)c(Cl)c2)C(=O)N1c1ccccc1C` [Form 1, Ponesimod], the “solubility compared with Form C in prior art” value in data set [1] is “better”. Further, the “stability compared with Form C in prior art” value (from here on “stability compared with Form C”) in data set [3] was “better”.
Regarding `CCC/N=C1\S/C(=C\c2ccc(OC[C@H](O)CO)c(Cl)c2)C(=O)N1c1ccccc1C` [Form 2, Ponesimod], the Solubility in data set [1] (FaSSIF pH=6.5, 1 h) stood at 17 µg/mL (≈ 36.9 µM); in data set [1] (FaSSIF pH=6.5, 24 h) it was 33 µg/mL (≈ 71.6 µM); in data set [1] (FeSSIF pH=5.0, 1 h), 996 µg/mL (≈ 2160 µM); in data set [1] (FeSSIF pH=5.0, 24 h) it was 813 µg/mL (≈ 1760 µM); in data set [1] (SGF pH=1.8, 1 h) it was 97 µg/mL (≈ 210 µM); in data set [1] (SGF pH=1.8, 24 h) it was 124 µg/mL (≈ 269 µM). For the same compound, the “solubility compared with Form C in prior art” value in data set [1] is recorded as “better”. In addition, the “solubility compared with Form A and Form C” value in data set [1] (in FaSSIF, FeSSIF, and SGF) is recorded as “higher”. Besides, the “Solid Form after storage” value is given as “doesn't change; also recorded: Form 2” in data set [3] (25° C./60% RH, 6 months); “doesn't change; also recorded: Form 2” in data set [3] (40° C./75% RH, 6 months); “doesn't change; also recorded: Form 2” in data set [3] (80° C., 3 months). In data set [3], the “stability compared with Form C” value is on record as “better”. For the same compound, in data set [3], the “physical stability (overall conclusion)” value was “good physical stability”.
Take `CCC/N=C1\S/C(=C\c2ccc(OC[C@H](O)CO)c(Cl)c2)C(=O)N1c1ccccc1C` [Ponesimod]: in data set [4], the “result of phase II mid-stage study” value was “positive results”.
As to `CCC/N=C1\S/C(=C\c2ccc(OC[C@H](O)CO)c(Cl)c2)C(=O)N1c1ccccc1C` [Form C, Ponesimod, reference compound], the Solubility in data set [1] (FaSSIF pH=6.5, 1 h) turned out to be 10 µg/mL (≈ 21.7 µM); in data set [1] (FeSSIF pH=5.0, 1 h), 133 µg/mL (≈ 289 µM); in data set [1] (FeSSIF pH=5.0, 24 h), 149 µg/mL (≈ 323 µM); in data set [1] (SGF pH=1.8, 1 h) it was 29 µg/mL (≈ 62.9 µM); in data set [1] (SGF pH=1.8, 24 h) it was 24 µg/mL (≈ 52.1 µM). In addition, the concentration in solution in data set [1] (water, thermodynamic from solid, H2O, 1 h, ND = below the LOD of instrument) (solubility at 1 h) came to 3 µg/mL (≈ 6.51 µM). For the same compound, the concentration in solution in data set [1] (water, thermodynamic from solid, H2O, 24 h, ND = below the LOD of instrument) (solubility at 24 h) was 1 µg/mL (≈ 2.17 µM). Moreover, in data set [2], the “solubility (in words)” value was “unsatisfactory”.
For `CCC/N=C1\S/C(=C\c2ccc(OC[C@H](O)CO)c(Cl)c2)C(=O)N1c1ccccc1C` [Form 3, Ponesimod], the Solubility turned out to be 84 µg/mL (≈ 182 µM) in data set [1] (FaSSIF pH=6.5, 1 h); 15 µg/mL (≈ 32.5 µM) in data set [1] (FaSSIF pH=6.5, 24 h); 1168 µg/mL (≈ 2530 µM) in data set [1] (FeSSIF pH=5.0, 1 h); 486 µg/mL (≈ 1050 µM) in data set [1] (FeSSIF pH=5.0, 24 h). Besides, the “solubility compared with Form C in prior art” value in data set [1] was “better”. In addition, the “solubility compared with Form A and Form C” value in data set [1] (in FaSSIF and FeSSIF) is on record as “higher”. In addition, the “Crystalline form after storing” value is listed as “doesn't change; also recorded: Form 3” in data set [3] (25° C./60% RH, 6 months) and “doesn't change; also recorded: Form 3” in data set [3] (40° C./75% RH, 6 months). The “stability compared with Form C” value in data set [3] is reported as “better”. Besides, the “physical stability (overall conclusion)” value in data set [3] is recorded as “good physical stability”.
